Where two headings read alike, the source gives them in different places.
Experiments:
[1] = target: T1, RORγ (Homo sapiens, UniProt P51449); assay: RORγ GAL4 reporter gene assay (luciferase readout, 293FT cells); type: cell-based; conditions: inhibition of RORγ (GAL4-RORγ-LBD) luciferase signal in transfected 293FT cells, overnight incubation; read-out: mean pIC50 (converted)
T1 construct: expressed in transfected cells; host or cells: 293FT cells (Invitrogen), expression vector pFN26A (Promega)
T1 sequence (P51449 269-508 limits assumed): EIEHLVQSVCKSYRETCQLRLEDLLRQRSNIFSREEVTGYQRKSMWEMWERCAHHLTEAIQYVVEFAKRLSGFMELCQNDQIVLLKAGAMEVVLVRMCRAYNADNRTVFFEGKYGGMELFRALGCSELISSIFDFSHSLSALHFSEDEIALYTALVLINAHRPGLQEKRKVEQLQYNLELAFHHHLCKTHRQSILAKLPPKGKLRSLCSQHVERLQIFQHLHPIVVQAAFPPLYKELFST
Method: Example inhibitors 1-45 were tested for their ability to inhibit RORγ activity in a RORγ GAL4 reporter gene assay.
The RORγ ligand-binding domain (LBD) was fused to the yeast GAL4 DNA binding domain (DBD) and placed under the control of the human cytomegalovirus (CMV) immediate early promoter, using expression vector pFN26A (Promega) and standard recombinant DNA cloning methods.
To monitor the inhibitory effect of compounds on RORγ, a transcriptional reporter construct was used. The pGL4.35 vector (Promega) contains nine copies of the GAL4 Upstream Activator Sequence (UAS). This sequence drives the transcription of the luciferase reporter gene luc2P in response to binding of a fusion protein containing the GAL4 DNA binding domain, as for example expressed by the GAL4-RORγ-LBD and GAL4-VP16 expression vectors described above.
The day after transfection, cells were plated into 96 well plates, test compound was added and the plates were incubated overnight. Subsequently, the firefly luciferase activity was quantified using luciferase detection reagent and luminescence readout.
1500 μL of this reagent mixture was added to 5 μg of GAL4 fusion protein expression vector and 5 μg of the transcriptional reporter construct, and incubated at RT for 20 minutes.
Subsequently, the cells were washed with Phosphate Buffered Saline (PBS) (Lonza), after which the PBS was removed. To dissociate the cells, 1 ml of TrypLE Express (Invitrogen) was added to the flask, followed by incubation at RT until the cells visually started to detach. Cells were collected in 5 mL of assay medium (DMEM culture medium (Lonza), 10% dialyzed FBS (Invitrogen) and Pen/Strep (Lonza)) to achieve a single cell suspension. 10×10^6 cells were spun down and re-suspended in 10 mL of assay medium.
For compound screening, the cells were harvested (as described above) and counted. […] 80 μL of cell suspension (60,000 cells) was plated per well into a white, flat bottom, tissue culture treated, 96 well screening plates (Greiner).
Subsequently, these solutions were diluted to 5× the final test concentration in two 10-fold-dilution steps in assay medium. The final DMSO concentration of the 5× test compound solution was 1%. 20 μL of the 5× test compound solution was added to each test well of the 96 well plate previously plated with 80 μl cell suspension, resulting in the final test concentration with 0.2% DMSO.
For the luciferase readout, the luciferase reagent (Britelite Plus, Perkin Elmer) was brought to RT. To each test well of the screening plates, 100 μL of 2.5-fold diluted Britelite Plus reagent was added, followed by incubation at RT for 10 minutes. The luciferase luminescence signal was measured using a Wallac Victor Microplate Reader (Perkin Elmer).

[2] = tested on: IL-17A production in anti-CD3/anti-CD28 stimulated peripheral blood mononuclear cells (PBMCs); assay: Peripheral blood mononuclear cell (PBMC) IL-17 assay; conditions: Homo sapiens, 120 h
Method: This assay is designed to measure the levels of IL-17A secreted from anti-CD3/anti-CD28 stimulated PBMCs with the aim of measuring RORγ mediated inhibition of IL-17A production.
The assay medium consists of 90% RPMI 1640 (Lonza), 10% heat inactivated fetal bovin serum (FBS, Lonza) and 100 U/mL penicillin/streptomycin solution.
Anti-CD3 antibody (BD Pharmingen) was diluted to 10 μg/ml in PBS (Lonza). 30 μL of 10 μg/ml anti-CD3 solution was added to the inner 60 wells, excluding any negative control wells, of a 96-well cell culture treated U-bottom plate (Greiner). Plates were incubated overnight (16-24 hours) at 37° C. and 5% CO2.
Peripheral blood mononuclear cells were separated from buffy coats (Sanquin) using Ficoll-Paque PREMIUM separation medium (GE Healthcare Life Sciences) according to manufacturer's protocol and re-suspended in assay medium at 37° C.
Test compounds were diluted, starting from a 10 mM dimethylsulfoxide (DMSO) stock solution, to serial dilutions in DMSO at 200× the final test concentration. Subsequently, these solutions were diluted in two dilution steps in assay medium to 10× the final test concentration. The DMSO concentration of the 10× test compound solution was 5%.
Anti-CD28 antibody (BD Pharmingen) was diluted to 20 μg/mL in PBS.
For compound screening, the anti-CD3 coated plates were washed three times with PBS, the wells were subsequently aspirated using vacuum. To each screening well 80 μL of the PBMC suspension, 10 μL of the anti-CD28 solution and 10 μL of the 1 Ox test compound solution was added, resulting in the final test concentration with 0.5% DMSO. All outer wells were filled with assay medium to prevent evaporation. Plates were incubated for 5 days at 37° C. and 5% CO2.
After incubation the plates were spun down at 1500 rpm for 4 minutes and the supernatant was collected. Subsequently, the IL-17A levels in the supernatants was determined using an IL-17 ELISA kit (human IL-17 DuoSet, R&D systems) according to manufacturer's protocol.
The half maximum inhibitory concentration (IC50) values for the test compounds were calculated from the IL-17A signal using GraphPad Prism software (GraphPad Software).

[3] = read-out: mean pIC50, inhibition of IL-17A secretion (ELISA), human PBMCs, anti-CD3/anti-CD28 stimulated, 5 days (converted)

Row | Compound | IC50 [1] [nM] | IC50 [2, 3] [nM] | IC50 ([2]; read-out:) [nM]
1 | CCCN(CC1CC1)C(=O)c1ccc(NC(=O)Cc2ccc(S(=O)(=O)CC)cc2)cc1 [Example 27, N-(cyclopropylmethyl)-4-{2-[4-(ethanesulfonyl)phenyl]acetamido}-N-propylbenzamide] | ≤ 1000 | – | –
2 | CCS(=O)(=O)c1ccc(CC(=O)Nc2ccc(C(=O)N(c3ccccc3)C(C)(C)C3CCCO3)cc2)cc1 (centres unmarked) [Example 18, 4-{2-[4-(ethanesulfonyl)phenyl]acetamido}-N-[2-(oxolan-2-yl)propan-2-yl]-N-phenylbenzamide] | ≤ 10 | ≤ 100 | –
3 | CCS(=O)(=O)c1ccc(CC(=O)Nc2ccc(C(=O)N(C)c3ccccc3)cc2)cc1 [Example 30, 4-{2-[4-(ethanesulfonyl)phenyl]acetamido}-N-methyl-N-phenylbenzamide] | ≤ 100 | – | –
4 | CCCN(C(=O)c1ccc(NC(=O)Cc2ccc(S(=O)(=O)CC)cc2)cc1)c1cccnc1 [Example 31, 4-{2-[4-(ethanesulfonyl)phenyl]acetamido}-N-propyl-N-(pyridin-3-yl)benzamide] | ≤ 100 | – | –
5 | CCS(=O)(=O)c1ccc(CC(=O)Nc2ccc(C(=O)N3CCCc4ccccc43)cc2)cc1 [Example 28, 2-[4-(ethanesulfonyl)phenyl]-N-[4-(1,2,3,4-tetrahydroquinoline-1-carbonyl)phenyl]acetamide] | ≤ 100 | – | –
6 | CCN(C(=O)c1ccc(NC(=O)Cc2ccc(S(=O)(=O)CC)cc2)cc1)c1cc(C)no1 [Example 3, 4-{2-[4-(ethanesulfonyl)phenyl]acetamido}-N-ethyl-N-(3-methyl-1,2-oxazol-5-yl)benzamide] | ≤ 100 | – | –
7 | CCN(C(=O)c1ccc(NC(=O)Cc2ccc(S(=O)(=O)CC)cc2)cc1)c1cccnc1 [Example 32, 4-{2-[4-(ethanesulfonyl)phenyl]acetamido}-N-ethyl-N-(pyridin-3-yl)benzamide] | ≤ 1000 | – | –
8 | CCS(=O)(=O)c1ccc(CC(=O)Nc2ccc(C(=O)N3CCCC3c3ccccc3)cc2)cc1 (centres unmarked) [Example 29, 2-[4-(ethanesulfonyl)phenyl]-N-[4-(2-phenylpyrrolidine-1-carbonyl)phenyl]acetamide] | ≤ 1000 | – | –
9 | CCS(=O)(=O)c1ccc(CC(=O)Nc2ccc(C(=O)N(C)c3cc(C)on3)cc2)cc1 [Example 1, 4-{2-[4-(ethanesulfonyl)phenyl]acetamido}-N-methyl-N-(5-methyl-1,2-oxazol-3-yl)benzamide] | ≤ 1000 | – | –
10 | CCN(C(=O)c1ccc(NC(=O)Cc2ccc(S(=O)(=O)CC)nc2)cc1F)c1ccccc1 [Example 43, 4-{2-[6-(ethanesulfonyl)pyridin-3-yl]acetamido}-N-ethyl-2-fluoro-N-phenylbenzamide] | ≤ 1000 | – | –
11 | CCS(=O)(=O)c1ccc(CC(=O)Nc2ccc(C(=O)N(C)Cc3ccccc3)cc2)cc1 [Example 26, N-benzyl-4-{2-[4-(ethanesulfonyl)phenyl]acetamido}-N-methylbenzamide] | ≤ 1000 | – | –
12 | CCS(=O)(=O)c1ccc(CC(=O)Nc2ccc(C(=O)N(c3ccccn3)C3CC3)cc2)cc1 [Example 40, N-cyclopropyl-4-{2-[4-(ethanesulfonyl)phenyl]acetamido}-N-(pyridin-2-yl)benzamide] | ≤ 1000 | – | –
13 | CCS(=O)(=O)c1ccc(CC(=O)Nc2ccc(C(=O)N(C3CCC3)C3CCC3)cc2)cc1 [Example 35, N, N-dicyclobutyl-4-{2-[4-(ethanesulfonyl)phenyl]acetamido}benzamide] | ≤ 1000 | – | –
14 | CCS(=O)(=O)c1ccc(CC(=O)Nc2ccc(C(=O)N(c3ccc(C)cc3)C(C)(C)CO)cc2)cc1 [Example 42, 4-{2-[4-(ethanesulfonyl)phenyl]acetamido}-N-(1-hydroxy-2-methylpropan-2-yl)-N-(4-methylphenyl)benzamide] | ≤ 100 | – | –
15 | CCCN(Cc1ccccc1)C(=O)c1ccc(NC(=O)Cc2ccc(S(=O)(=O)CC)cc2)cc1 [Example 25, N-benzyl-4-{2-[4-(ethanesulfonyl)phenyl]acetamido}-N-propylbenzamide] | ≤ 100 | – | –
16 | CCS(=O)(=O)c1ccc(CC(=O)Nc2ccc(C(=O)N(c3ccccc3)C(C)(C)C)cc2)cn1 [Example 44, N-tert-butyl-4-{2-[6-(ethanesulfonyl)pyridin-3-yl]acetamido}-N-phenylbenzamide] | ≤ 100 | ≤ 100 | –
17 | CCS(=O)(=O)c1ccc(CC(=O)Nc2ccc(C(=O)N(c3ccccc3)C3CC(F)(F)C3)cc2)cc1 [Example 21, N-(3,3-difluorocyclobutyl)-4-{2-[4-(ethanesulfonyl)phenyl]acetamido}-N-phenylbenzamide] | – | ≤ 100 | –
18 | CCS(=O)(=O)c1ccc(CC(=O)Nc2ccc(C(=O)N(C)c3ccccn3)cc2)cc1 [Example 23, 4-{2-[4-(ethanesulfonyl)phenyl]acetamido}-N-methyl-N-(pyridin-2-yl)benzamide] | ≤ 1000 | – | –
19 | CCS(=O)(=O)c1ccc(CC(=O)Nc2ccc(C(=O)N3CCCCC3c3ccccc3)cc2)cc1 (centres unmarked) [Example 33, 2-[4-(ethanesulfonyl)phenyl]-N-[4-(2-phenylpiperidine-1-carbonyl)phenyl]acetamide] | ≤ 100 | – | –
20 | CCS(=O)(=O)c1ccc(CC(=O)Nc2ccc(C(=O)N(c3ccccn3)C3CCC3)cc2)cc1 [Example 41, N-cyclobutyl-4-{2-[4-(ethanesulfonyl)phenyl]acetamido}-N-(pyridin-2-yl)benzamide] | ≤ 1000 | – | –
21 | CCCN(C(=O)c1ccc(NC(=O)Cc2ccc(S(=O)(=O)CC)cc2)cc1)c1cc(C)nn1C [Example 6, N-(1,3-dimethyl-1H-pyrazol-5-yl)-4-{2-[4-(ethanesulfonyl)phenyl]acetamido}-N-propylbenzamide] | – | ≤ 100 | –
22 | CCN(C(=O)c1ccc(NC(=O)Cc2ccc(S(=O)(=O)CC)cc2)cc1)c1cc(C)nn1C [Example 2, N-(1,3-dimethyl-1H-pyrazol-5-yl)-4-{2-[4-(ethanesulfonyl)phenyl]acetamido}-N-ethylbenzamide] | ≤ 100 | ≤ 100 | –
23 | CCCN(C(=O)c1ccc(NC(=O)Cc2ccc(S(=O)(=O)CC)cc2)cc1)c1cc(C)on1 [Example 5, 4-{2-[4-(ethanesulfonyl)phenyl]acetamido}-N-(5-methyl-1,2-oxazol-3-yl)-N-propylbenzamide] | – | ≤ 100 | –
24 | CCN(C(=O)c1ccc(NC(=O)Cc2ccc(S(=O)(=O)CC)cc2)nc1)c1ccccc1 [Example 24, 6-{2-[4-(ethanesulfonyl)phenyl]acetamido}-N-ethyl-N-phenylpyridine-3-carboxamide] | ≤ 1000 | – | –
25 | CCS(=O)(=O)c1ccc(CC(=O)Nc2ccc(C(=O)N(Cc3ccccc3)Cc3ccccc3)cc2)cc1 [Example 38, N,N-dibenzyl-4-{2-[4-(ethanesulfonyl)phenyl]acetamido}benzamide] | ≤ 100 | – | –
26 | CCN(C(=O)c1ccc(NC(=O)Cc2ccc(S(=O)(=O)CC)cc2)cc1)c1nc(C)c(C)s1 [Example 13, N-(4-methyl-5-methyl-1,3-thiazol-2-yl)-4-{2-[4-(ethanesulfonyl)phenyl]acetamido}-N-ethylbenzamide] | – | – | ≤ 100
27 | CCN(C(=O)c1ccc(NC(=O)Cc2ccc(S(=O)(=O)CC)cc2)cc1)c1ccccc1 [Example 34, 4-{2-[4-(ethanesulfonyl)phenyl]acetamido}-N-ethyl-N-phenylbenzamide] | ≤ 10 | – | –
28 | CCS(=O)(=O)c1ccc(CC(=O)Nc2ccc(C(=O)N(C)Cc3ccco3)cc2)cc1 [Example 37, 4-{2-[4-(ethanesulfonyl)phenyl]acetamido}-N-(furan-2-ylmethyl)-N-methylbenzamide] | ≤ 1000 | – | –
29 | CCS(=O)(=O)c1ccc(CC(=O)Nc2ccc(C(=O)N(c3ccc(C)cc3)C(C)(C)C3CCCO3)cc2)cc1 (centres unmarked) [Example 17, 4-{2-[4-(ethanesulfonyl)phenyl]acetamido}-N-(4-methylphenyl)-N-[2-(oxolan-2-yl)propan-2-yl]benzamide] | – | ≤ 100 | –

Source: patent US10428018B2, “ROR gamma (RORy) modulators” (LEAD PHARMA HOLDING B.V., priority 2015, dated 2019)
